Source: ChEMBL document CHEMBL5143711, “Glenthmycins A-M: Macrocyclic Spirotetronate Polyketide Antibacterials from the Australian Pasture Plant-Derived Streptomyces sp. CMB-PB041” (J Nat Prod, 2022)

What was measured:
Enterococcus faecium = test: Antibacterial activity against vancomycin-resistant Enterococcus faecium incubated for 16 to 24 hrs by broth microdilution based spectrophotometric analysis; assay type: functional, organism-based
Staphylococcus aureus [1] = test: Antibacterial activity against methicillin-resistant Staphylococcus aureus ATCC 33591 incubated for 16 to 24 hrs by broth microdilution based spectrophotometric analysis; assay type: functional, organism-based
Enterococcus faecalis = test: Antibacterial activity against Enterococcus faecalis incubated for 16 to 24 hrs by broth microdilution based spectrophotometric analysis; assay type: functional, organism-based
Staphylococcus aureus [2] = test: Antibacterial activity against methicillin-resistant Staphylococcus aureus ATCC 43300 incubated for 16 to 24 hrs by broth microdilution based spectrophotometric analysis; assay type: functional, organism-based
Staphylococcus aureus [3] = test: Antibacterial activity against Staphylococcus aureus ATCC 25923 incubated for 16 to 24 hrs by broth microdilution based spectrophotometric analysis; assay type: functional, organism-based
Escherichia coli = test: Antibacterial activity against Escherichia coli ATCC 11775 incubated for 16 to 24 hrs by broth microdilution based spectrophotometric analysis; assay type: functional, organism-based
[4] = Cytotoxicity against human SW-620 cells and measured after 48 hrs by MTT assay; assay type: toxicity, cell-based
[5] = system: Mycobacterium tuberculosis; test: Antibacterial activity against Mycobacterium tuberculosis H37Ra ATCC 25177 incubated for 16 to 24 hrs by broth microdilution based spectrophotometric analysis; assay type: functional, organism-based
[6] = Cytotoxicity against human NCI-H460 cells and measured after 48 hrs by MTT assay; assay type: toxicity, cell-based
Candida albicans = test: Antifungal activity against Candida albicans ATCC 10231 incubated for 16 to 24 hrs by broth microdilution based spectrophotometric analysis; assay type: functional, organism-based

Row | Structure (SMILES) | IC50 (Enterococcus faecium) [µM] | IC50 (Staphylococcus aureus [1]) [µM] | IC50 (Enterococcus faecalis) [µM] | IC50 (Staphylococcus aureus [2]) [µM] | IC50 (Staphylococcus aureus [3]) [µM] | IC50 (Escherichia coli) [µM] | IC50 at 48 h [4] [µM] | IC50 [5] [µM] | IC50 at 48 h [6] [µM] | IC50 (Candida albicans) [µM]
1 | CCCCCCCCCCCC(=O)O[C@H]1CC[C@H](C)[C@@H]2[C@@H]1C=C(C)[C@H]1/C(C)=C/CC/C(C)=C/[C@]3(C)C=C(C)[C@H](C)C[C@]34OC(=O)C(=C4O)C(=O)[C@@]21C | > 30 | > 30 | > 30 | > 30 | > 30 | – | – | – | – | –
2 | CC1=C[C@H]2[C@@H]([C@@H](C)CC[C@@H]2O[C@@H]2O[C@H](C)[C@@H](O)[C@@H](O)[C@H]2O)[C@]2(C)C(=O)C3=C(O)[C@@]4(C[C@@H](C)C(C(=O)O)=C[C@@]4(C)/C=C(\C)CC/C=C(\C)[C@H]12)OC3=O | > 30 | > 30 | > 30 | > 30 | > 30 | – | – | – | – | –
3 | COc1cc(C)c(C(=O)O[C@H]2[C@@H](O)[C@@H](O)[C@H](O[C@H]3CC[C@H](C)[C@@H]4[C@@H]3C=C(C)[C@H]3/C(C)=C/CC/C(C)=C/[C@]5(C)C=C(C(=O)O)[C@H](C)C[C@]56OC(=O)C(=C6O)C(=O)[C@@]43C)O[C@@H]2C)c(O)c1 | > 30 | > 30 | > 30 | > 30 | > 30 | > 30 | > 30 | > 30 | > 30 | > 30
4 | CC(=O)O[C@H]1CC[C@H](C)[C@@H]2[C@@H]1C=C(C)[C@H]1/C(C)=C/CC/C(C)=C/[C@@H]3C=C(C(=O)O)[C@H](C)C[C@]34OC(=O)C(=C4O)C(=O)[C@@]21C | > 30 | > 30 | > 30 | > 30 | > 30 | – | – | – | – | –
5 | CCCCC(=O)O[C@H]1CC[C@H](C)[C@@H]2[C@@H]1C=C(C)[C@H]1/C(C)=C/CC/C(C)=C/[C@]3(C)C=C(C)[C@H](C)C[C@]34OC(=O)C(=C4O)C(=O)[C@@]21C | 1.6 | 1.4 | 0.5 | 1.6 | 0.2 | – | – | – | – | –
6 | CC(=O)O[C@H]1CC[C@H](C)[C@@H]2[C@@H]1C=C(C)[C@H]1/C(C)=C/CC/C(C)=C/[C@]3(C)C=C(C(=O)O)[C@H](C)C[C@]34OC(=O)C(=C4O)C(=O)[C@@]21C | > 30 | > 30 | > 30 | > 30 | > 30 | – | – | – | – | –
7 | COc1cc(C)c(C(=O)O[C@H]2[C@@H](O)[C@H](O[C@H]3CC[C@H](C)[C@@H]4[C@@H]3C=C(C)[C@H]3/C(C)=C/CC/C(C)=C/[C@]5(C)C=C(C(=O)O)[C@H](C)C[C@]56OC(=O)C(=C6O)C(=O)[C@@]43C)O[C@H](C)[C@H]2O)c(O)c1 | 13.1 | 12.2 | 4 | 7.3 | 23.2 | > 30 | > 30 | > 30 | > 30 | > 30
8 | COc1cc(C)c(C(=O)N[C@@H]2[C@@H](C)O[C@@H](O[C@H]3CC[C@H](C)[C@@H]4[C@@H]3C=C(C)[C@H]3/C(C)=C/CC/C(C)=C/[C@]5(C)C=C(C(=O)O)[C@H](C)C[C@]56OC(=O)C(=C6O)C(=O)[C@@]43C)[C@H](O)[C@]2(C)O)c(O)c1 | 9.5 | 2.2 | 7.3 | 9.1 | 11.9 | > 30 | > 30 | > 30 | > 30 | > 30
9 | COc1cc(C)c(C(=O)O[C@H]2[C@@H](O)[C@@H](O)[C@H](O[C@H]3CC[C@H](C)[C@@H]4[C@@H]3C=C(C)[C@H]3/C(C)=C/CC/C(C)=C/[C@]5(C)C=C(C(=O)O)[C@H](C)C[C@]56OC(=O)C(=C6O)C(=O)[C@@]43C)O[C@@H]2C)c(OC)c1 | 3.2 | 2.3 | 6.2 | 3.9 | 4.9 | > 30 | > 30 | > 30 | > 30 | > 30
10 | COc1cc(C)c(C(=O)N[C@@H]2[C@@H](C)O[C@@H](O[C@H]3CC[C@H](C)[C@@H]4[C@@H]3C=C(C)[C@H]3/C(C)=C/CC/C(C)=C/[C@@H]5C=C(C(=O)O)[C@H](C)C[C@]56OC(=O)C(=C6O)C(=O)[C@@]43C)[C@H](O)[C@]2(C)O)c(O)c1 | 5.2 | 1.9 | 5.7 | 4.4 | 6.4 | > 30 | > 30 | > 30 | > 30 | > 30
11 | COc1cc(C)c(C(=O)O[C@H]2[C@@H](O)[C@H](O[C@H]3CC[C@H](C)[C@@H]4[C@@H]3C=C(C)[C@H]3/C(C)=C/CC/C(C)=C/[C@@H]5C=C(C(=O)O)[C@H](C)C[C@]56OC(=O)C(=C6O)C(=O)[C@@]43C)O[C@H](C)[C@H]2O)c(O)c1 | 2.9 | 5.8 | 8.9 | 7.9 | 8.4 | > 30 | > 30 | > 30 | > 30 | > 30
12 | COc1cc(C)c(C(=O)O[C@H]2[C@@H](O)[C@@H](O)[C@H](O[C@H]3CC[C@H](C)[C@@H]4[C@@H]3C=C(C)[C@H]3/C(C)=C/CC/C(C)=C/[C@@H]5C=C(C(=O)O)[C@H](C)C[C@]56OC(=O)C(=C6O)C(=O)[C@@]43C)O[C@@H]2C)c(O)c1 | 5.4 | 8.3 | 3.1 | 6.3 | 15.3 | > 30 | > 30 | > 30 | > 30 | > 30
13 | CC1=C[C@H]2[C@@H]([C@@H](C)CC[C@@H]2O)[C@]2(C)C(=O)C3=C(O)[C@@]4(C[C@@H](C)C(C(=O)O)=C[C@H]4/C=C(\C)CC/C=C(\C)[C@H]12)OC3=O | > 30 | > 30 | > 30 | > 30 | > 30 | – | – | – | – | –
14 | CC1=C[C@H]2[C@@H]([C@@H](C)CC[C@@H]2O)[C@]2(C)C(=O)C3=C(O)[C@@]4(C[C@@H](C)C(C(=O)O)=C[C@@]4(C)/C=C(\C)CC/C=C(\C)[C@H]12)OC3=O | > 30 | > 30 | > 30 | > 30 | > 30 | – | – | – | – | –
15 | COc1cccc(OC)c1C(=O)N[C@@H]1C(=O)N2[C@@H]1SC(C)(C)[C@@H]2C(=O)O [METHICILLIN] | – | > 10 | – | > 10 | < 10 | – | – | – | – | –
16 | CN[C@H](CC(C)C)C(=O)N[C@H]1C(=O)N[C@@H](CC(N)=O)C(=O)N[C@H]2C(=O)N[C@H]3C(=O)N[C@H](C(=O)N[C@H](C(=O)O)c4cc(O)cc(O)c4-c4cc3ccc4O)[C@H](O)c3ccc(c(Cl)c3)Oc3cc2cc(c3O[C@@H]2O[C@H](CO)[C@@H](O)[C@H](O)[C@H]2O[C@H]2C[C@](C)(N)[C@H](O)[C@H](C)O2)Oc2ccc(cc2Cl)[C@H]1O [VANCOMYCIN] | > 10 | – | < 10 | – | – | – | – | – | – | –
